Structures can show the parent of a compound that is named as a salt.
Assays:
N-type Ca2+ channel = molecular target: T1, N-type Ca2+ channel (Homo sapiens, UniProt Q00975); assay: Measurement of N-type Ca2+ channel blocking potencies in IMR32 cells using the fluorescent Ca2+ indicator Indo-1; type: cell-based; conditions: IMR-32 cells; for IC50: K+ depolarization, 5 μM nitrendipine to block L-type channels
T1 construct: host or cells: IMR-32 human neuroblastoma cells, differentiated with dibutyryl cAMP and bromodeoxyuridine
Description: Measurement of N-type Ca^2+ Channel Blocking Potencies of Compounds in IMR32 Cells Using the Fluorescent Ca^2+ Indicator Indo-1
IMR-32 cells are a human tumoral cell line of neural origin. […] Calcium flux into these cells may be induced by stimulation with elevated potassium concentrations. The L-channel component of calcium flux may be blocked by adding 5 μM nitrendipine. The remaining component of calcium entry into the IMR-32 cells is due to calcium flux through N-type calcium channels. Intracellular calcium concentrations are measured using the fluorescent calcium indicator Indo-1. The effect of drug concentration on calcium uptake is studied.
The IMR-32 cell line was obtained from the American Type Culture Collection (Rockville, Md.). Cells were grown in Eagle's Minimum Essential Medium with Earle's salts supplemented with 10% fetal bovine serum, 2 mM L-Gln and antibiotic/antimicotic mixture (Gibco). At approximately 80% confluency, differentiation was induced by the addition of 1 mM dibutyryl cAMP and 2.5 μM bromodeoxyuridine to the medium. After 7 to 13 days of differentiation, cells were detached using 0.5 mM EDTA and loaded with 5 μM Indo-1 acetoxymethyl ester (Molecular Probes, Eugene, Oreg.) at […] for 45 minutes. Loaded cells were washed twice, resuspended (˜10^7 cells/mL) in assay buffer (10 mM HEPES/Tris pH 7.4 in Hank's Balanced Salt Solution without bicarbonate or phenol red containing 0.5% bovine serum albumin) and kept on ice until use. Fluorescence measurements were carried out in a Photon Technology International (PTI, South Brunswick, N.J.) Model RF-F3004 spectrofluorometer with dual emission monochromators using excitation at 350 nm and emission at 400 and 490 nm. The instrument was equipped with a thermostated cuvette holder with stirring capabilities as well as with a computer-controlled pump that allowed for reagent addition during measurement. Instrument control and data collection was done by PTI's OSCAR software running on an IBM compatible computer. Different concentrations of the test compounds (60 μL in dimethyl sulfoxide) were added to 5.94 mL of assay buffer containing approximately 3×10^6 loaded cells, and 5 μM Nitrendipine (in 30 μL EtOH) to block L-type Ca^2+ channels. Samples were incubated for 10 minutes at 30° C. and then aliquoted into three 10×10 mm disposable acrylic cuvettes. Emission signals at 400 and 490 nm were acquired from each cuvette at 30° C. for 50 seconds. At 20 seconds after the start of reading, cells were depolarized by the addition of 160 μL of stimulation solution (1M KCl, 68 mM CaCl2) to the cuvette via the computer-controlled pump. Ratio of dual emission signals (400 nm/490 nm), which is proportional to intracellular Ca^2+ concentration, was plotted against time, and the difference between maximal response after stimulation and basal value (before stimulation) was determined. Values obtained in this way were plotted as a function of drug concentration. IC50 values of test compounds were calculated by fitting a 4-parameter logistic function to the data using the least squares method.

DBA/2 mice = assay: Audiogenic seizure model in DBA/2 mice; type: in vivo; conditions: for protection: 30 mg/kg, 15 minutes posttreatment time
Description: Audiogenic Seizure Model in DBA/2 Mice
Compounds of the present invention were dissolved in water using 10% (weight/volume) Emulphor (GAF Corp., Wayne, N.J.) surfactant. Substances were administered by intravenous injection into the retro-orbital venous sinus. All testing was performed 15 minutes or 45 minutes after drug injection. All the male mice, 3 to 4 weeks old, were obtained from Jackson Laboratories, Bar Harbour, Me. Immediately before anticonvulsant testing, mice were placed upon a wire mesh, 4 inches square suspended from a steel rod. […] Any mouse falling from the wire mesh was scored as ataxic.
Mice were placed into an enclosed acrylic plastic chamber (21 cm height, approximately 30 cm diameter) with a high-frequency speaker (4 cm diameter) in the center of the top lid. An audio signal generator (Protek model B-810) was used to produce a continuous sinusoidal tone that was swept linearly in frequency between 8 kHz and 16 kHz once each 10 msec. The average sound pressure level (SPL) during stimulation was approximately 100 dB at the floor of the chamber. Mice were placed within the chamber and allowed to acclimatize for 1 minute. DBA/2 mice in the vehicle-treated group responded to the sound stimulus (applied until tonic extension occurred, or for a maximum of 60 seconds) with a characteristic seizure sequence consisting of wild running followed by clonic seizures, and later by tonic extension, and finally by respiratory arrest and death in 80% or more of the mice. In vehicle-treated mice, the entire sequence of seizures to respiratory arrest lasts approximately 15 to 20 seconds.
The incidence of all the seizure phases in the drug-treated and vehicle-treated mice was recorded, and the occurrence of tonic seizures were used for calculating anticonvulsant ED values by probit analysis. Mice were used only once for testing at each time and dose point.

[1] = 10 mg/kg IV, 15 minutes post treatment, dihydrochloride
[2] = 10 mg/kg IV, 45 minutes post treatment, dihydrochloride
[3] = 10 mg/kg IV, 15 minutes post treatment
[4] = 30 mg/kg IV, 15 minutes post treatment
[5] = 30 mg/kg IV, 45 minutes post treatment

T1 sequence (Q00975 whole entry): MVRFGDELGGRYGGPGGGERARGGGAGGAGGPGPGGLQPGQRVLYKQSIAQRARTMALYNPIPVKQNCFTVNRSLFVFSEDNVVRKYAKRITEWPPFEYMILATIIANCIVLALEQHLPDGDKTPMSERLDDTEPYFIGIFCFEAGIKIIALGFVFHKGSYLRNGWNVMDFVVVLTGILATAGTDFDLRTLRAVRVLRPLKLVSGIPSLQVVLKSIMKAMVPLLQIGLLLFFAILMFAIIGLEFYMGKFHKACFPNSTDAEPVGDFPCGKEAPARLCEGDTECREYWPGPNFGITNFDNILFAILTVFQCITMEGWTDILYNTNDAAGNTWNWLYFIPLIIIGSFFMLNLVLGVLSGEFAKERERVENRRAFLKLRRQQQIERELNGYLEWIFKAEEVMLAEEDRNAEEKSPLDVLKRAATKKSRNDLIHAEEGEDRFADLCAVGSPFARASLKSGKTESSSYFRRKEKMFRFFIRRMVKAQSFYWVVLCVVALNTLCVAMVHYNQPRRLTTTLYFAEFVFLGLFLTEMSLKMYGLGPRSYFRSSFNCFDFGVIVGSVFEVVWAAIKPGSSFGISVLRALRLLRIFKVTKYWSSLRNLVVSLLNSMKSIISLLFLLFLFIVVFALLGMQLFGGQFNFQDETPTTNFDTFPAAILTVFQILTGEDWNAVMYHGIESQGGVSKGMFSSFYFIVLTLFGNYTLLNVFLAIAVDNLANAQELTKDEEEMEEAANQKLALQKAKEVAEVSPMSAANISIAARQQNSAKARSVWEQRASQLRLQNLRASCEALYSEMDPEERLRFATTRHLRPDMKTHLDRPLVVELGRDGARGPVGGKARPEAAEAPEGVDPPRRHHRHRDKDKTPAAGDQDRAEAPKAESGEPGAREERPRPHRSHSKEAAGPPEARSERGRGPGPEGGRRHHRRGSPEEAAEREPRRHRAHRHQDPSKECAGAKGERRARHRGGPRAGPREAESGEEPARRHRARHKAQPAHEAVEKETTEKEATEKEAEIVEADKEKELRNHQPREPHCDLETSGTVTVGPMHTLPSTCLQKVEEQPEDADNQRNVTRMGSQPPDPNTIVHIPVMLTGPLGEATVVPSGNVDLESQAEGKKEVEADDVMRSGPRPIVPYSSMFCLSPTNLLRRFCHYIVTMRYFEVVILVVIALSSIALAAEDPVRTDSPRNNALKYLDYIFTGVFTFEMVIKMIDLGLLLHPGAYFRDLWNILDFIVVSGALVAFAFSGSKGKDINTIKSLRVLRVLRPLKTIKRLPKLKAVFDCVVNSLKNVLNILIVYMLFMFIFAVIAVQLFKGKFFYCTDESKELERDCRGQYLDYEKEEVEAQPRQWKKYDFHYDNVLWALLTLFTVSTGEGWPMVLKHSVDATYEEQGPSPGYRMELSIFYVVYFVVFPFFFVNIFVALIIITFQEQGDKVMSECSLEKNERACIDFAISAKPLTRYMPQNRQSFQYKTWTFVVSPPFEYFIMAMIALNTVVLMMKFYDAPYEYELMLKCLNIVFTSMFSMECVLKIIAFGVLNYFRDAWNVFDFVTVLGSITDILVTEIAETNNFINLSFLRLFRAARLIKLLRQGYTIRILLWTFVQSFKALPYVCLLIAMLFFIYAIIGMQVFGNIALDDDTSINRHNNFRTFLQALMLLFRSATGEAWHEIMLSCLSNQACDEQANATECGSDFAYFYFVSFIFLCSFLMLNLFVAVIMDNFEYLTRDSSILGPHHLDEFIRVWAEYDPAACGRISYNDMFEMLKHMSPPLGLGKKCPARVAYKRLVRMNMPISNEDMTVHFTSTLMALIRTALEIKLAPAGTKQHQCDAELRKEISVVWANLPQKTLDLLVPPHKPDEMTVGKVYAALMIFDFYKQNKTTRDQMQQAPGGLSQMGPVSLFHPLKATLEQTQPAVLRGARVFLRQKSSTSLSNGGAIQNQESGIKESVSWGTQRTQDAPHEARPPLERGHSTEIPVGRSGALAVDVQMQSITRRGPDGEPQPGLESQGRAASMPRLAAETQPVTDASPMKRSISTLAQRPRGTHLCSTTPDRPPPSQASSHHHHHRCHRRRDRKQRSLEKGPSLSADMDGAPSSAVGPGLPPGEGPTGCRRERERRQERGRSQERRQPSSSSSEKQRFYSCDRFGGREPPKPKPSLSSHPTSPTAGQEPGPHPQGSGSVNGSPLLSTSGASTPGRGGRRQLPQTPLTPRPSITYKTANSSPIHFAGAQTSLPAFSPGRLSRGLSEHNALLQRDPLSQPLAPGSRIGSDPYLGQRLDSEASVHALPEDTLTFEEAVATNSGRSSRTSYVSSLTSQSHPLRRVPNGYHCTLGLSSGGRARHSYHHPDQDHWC
T1 sequence (Q02641 whole entry partner): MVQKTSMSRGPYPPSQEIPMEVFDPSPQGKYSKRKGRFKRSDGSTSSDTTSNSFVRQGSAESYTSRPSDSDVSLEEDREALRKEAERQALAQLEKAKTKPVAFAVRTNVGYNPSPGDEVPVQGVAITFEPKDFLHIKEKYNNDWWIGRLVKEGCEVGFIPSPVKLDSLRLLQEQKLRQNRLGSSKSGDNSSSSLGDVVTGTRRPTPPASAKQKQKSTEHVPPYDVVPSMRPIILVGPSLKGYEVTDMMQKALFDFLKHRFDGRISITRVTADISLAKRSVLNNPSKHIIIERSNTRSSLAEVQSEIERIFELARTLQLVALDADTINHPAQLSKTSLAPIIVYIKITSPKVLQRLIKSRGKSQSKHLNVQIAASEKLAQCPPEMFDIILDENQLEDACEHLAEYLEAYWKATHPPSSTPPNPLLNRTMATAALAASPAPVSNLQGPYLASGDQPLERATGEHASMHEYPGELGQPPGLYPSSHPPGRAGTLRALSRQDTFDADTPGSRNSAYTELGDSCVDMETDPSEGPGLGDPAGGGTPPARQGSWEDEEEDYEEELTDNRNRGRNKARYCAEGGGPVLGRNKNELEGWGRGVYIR
T1 sequence (P54289 25-956 partner limits assumed): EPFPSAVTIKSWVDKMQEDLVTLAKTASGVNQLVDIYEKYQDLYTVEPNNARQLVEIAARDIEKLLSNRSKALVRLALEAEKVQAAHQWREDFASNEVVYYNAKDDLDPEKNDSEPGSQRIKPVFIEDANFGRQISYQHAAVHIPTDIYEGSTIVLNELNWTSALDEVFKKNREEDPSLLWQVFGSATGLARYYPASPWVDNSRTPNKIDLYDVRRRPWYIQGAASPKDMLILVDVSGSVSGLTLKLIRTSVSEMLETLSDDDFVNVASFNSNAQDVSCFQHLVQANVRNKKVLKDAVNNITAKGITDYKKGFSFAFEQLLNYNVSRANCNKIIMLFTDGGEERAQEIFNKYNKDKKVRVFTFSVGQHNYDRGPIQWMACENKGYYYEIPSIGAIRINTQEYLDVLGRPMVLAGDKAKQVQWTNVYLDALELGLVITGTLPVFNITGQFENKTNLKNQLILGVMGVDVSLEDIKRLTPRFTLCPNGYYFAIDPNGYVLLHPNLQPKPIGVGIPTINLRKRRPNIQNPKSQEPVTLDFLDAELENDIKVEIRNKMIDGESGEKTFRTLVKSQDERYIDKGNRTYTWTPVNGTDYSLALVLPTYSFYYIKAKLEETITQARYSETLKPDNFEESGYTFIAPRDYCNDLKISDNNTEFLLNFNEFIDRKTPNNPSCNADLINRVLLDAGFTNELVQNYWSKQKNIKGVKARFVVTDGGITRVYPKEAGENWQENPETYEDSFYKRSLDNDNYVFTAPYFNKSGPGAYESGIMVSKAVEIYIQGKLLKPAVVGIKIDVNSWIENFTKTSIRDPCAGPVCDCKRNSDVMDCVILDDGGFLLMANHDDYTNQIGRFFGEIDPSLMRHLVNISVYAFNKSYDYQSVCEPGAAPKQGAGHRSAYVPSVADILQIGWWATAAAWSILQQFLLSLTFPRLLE
T1 sequence (P54289 957-1103 partner limits assumed): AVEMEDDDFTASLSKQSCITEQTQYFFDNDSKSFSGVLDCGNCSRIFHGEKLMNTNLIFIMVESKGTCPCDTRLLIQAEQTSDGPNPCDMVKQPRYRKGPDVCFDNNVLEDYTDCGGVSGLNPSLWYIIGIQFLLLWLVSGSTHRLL

## CC(C)CC(N)CN[C@@H](Cc1ccc(OCc2ccccc2)cc1)C(=O)NC(C)(C)C (single isomer, unassigned) [Example 7, dihydrochloride]
N-type Ca2+ channel
  IC50: 1.2 µM
DBA/2 mice; [1]
  Number of Mice Protected from Tonic Convulsions / number of mice tested: 2/5
DBA/2 mice; [2]
  Number of Mice Protected from Tonic Convulsions / number of mice tested: 1/5

## CC(C)C[C@@H](CN[C@@H](Cc1ccc(OCc2ccccc2)cc1)C(=O)NC(C)(C)C)NC(=O)N1CCCCCC1 (relative stereo) [Example 2, [S-(R*,R*)]Azepane-1-carboxylic acid (1-{[2-(4-benzyloxy-phenyl)-1-tert-butylcarbamoyl-ethylamino]-methyl}-3-methyl-butyl)-amide dihydrochloride salt]
N-type Ca2+ channel
  IC50: 0.19 µM
DBA/2 mice; [3]
  Number of Mice Protected from Tonic Convulsions / number of mice tested: 1/5
DBA/2 mice; [4]
  Number of Mice Protected from Tonic Convulsions / number of mice tested: 5/5
DBA/2 mice; [5]
  Number of Mice Protected from Tonic Convulsions / number of mice tested: 1/5
DBA/2 mice
  protection: 100%

## CC(C)C[C@@H](C(=O)N[C@@H](Cc1ccc(OCc2ccccc2)cc1)CN1CCOCC1)N(C)C (relative stereo) [Example 3, [S-(R*,R*)]-2-Dimethylamino-4-methyl-pentanoic acid [2-(4-benzyloxy-phenyl)-1-morpholin-4-ylmethyl-ethyl]-amide]
N-type Ca2+ channel; 1 μM compound, 5 μM nitrendipine
  IMR32 % @ 1 μM: 6% @ 1 μM
N-type Ca2+ channel; 10 μM compound, 5 μM nitrendipine
  IMR32 % @ 10 μM: 48% @ 10 μM
other
  melting point: 113 to 114 °C

## CC(C)C[C@H](NC(=O)N1CCCCCC1)C(=O)N[C@H](COC(C)(C)C)Cc1ccc(OCc2ccccc2)cc1 (relative stereo) [Example 1, [S-(R*,R*)]-Azepane-1-carboxylic acid {1-[2-(4-benzyloxy-phenyl)-1-tert-butoxymethyl-ethylcarbamoyl]-3-methyl-butyl}-amide]
N-type Ca2+ channel
  IC50: 0.21 µM
DBA/2 mice; [3]
  Number of Mice Protected from Tonic Convulsions / number of mice tested: 1/5
DBA/2 mice; [4]
  Number of Mice Protected from Tonic Convulsions / number of mice tested: 4/5
DBA/2 mice; [5]
  Number of Mice Protected from Tonic Convulsions / number of mice tested: 2/5
DBA/2 mice
  protection: 80%

## CC(C)C[C@H](NC(=O)N1CCCCCC1)C(=O)N[C@H](CNC(C)(C)C)Cc1ccc(OCc2ccccc2)cc1 (relative stereo) [Example 5, [S-(R*,R*)]Azepane-1-carboxylic acid {1-[2-(4-benzyloxy-phenyl)-1-(tert-butylamino-methyl)-ethylcarbamoyl]-3-methyl-butyl}-amide trifloroacetate salt]
N-type Ca2+ channel
  IC50: 1.1 µM

## CC(C)CC(N)CN[C@@H](Cc1ccc(OCc2ccccc2)cc1)C(=O)NC(C)(C)C (single isomer, unassigned) [Example 8, 2-(2-Amino-4-methyl-pentylamino)-3-(4-benzyloxy-phenyl)-N-tert-butyl-propionamide dihydrochloride]
N-type Ca2+ channel
  IC50: 1 µM
DBA/2 mice; [1]
  Number of Mice Protected from Tonic Convulsions / number of mice tested: 0/5
DBA/2 mice; [2]
  Number of Mice Protected from Tonic Convulsions / number of mice tested: 0/5

## CCN(CC)C[C@H](Cc1ccc(OCc2ccccc2)cc1)NC(=O)[C@H](CC(C)C)NC(=O)N1CCCCCC1 [Example 6, (S,S)-Azepane-1-carboxylic acid {1-[2-(4-benzyloxy-phenyl)-1-diethylaminomethyl-ethylcarbamoyl]-3-methyl-butyl}-amide]
N-type Ca2+ channel
  IC50: 1.1 µM

## CC(C)C[C@H](NC(=O)N1CCCCCC1)C(=O)N[C@@H](Cc1ccc(OCc2ccccc2)cc1)CN1CCOCC1 (relative stereo) [Example 4, [S-(R*,R*)]-Azepane-1-carboxylic acid {1-[2-(4-benzyloxy-phenyl) -1-morpholin-4-ylmethyl-ethylcarbamoyl]-3-methyl-butyl}-amide]
N-type Ca2+ channel
  IC50: 1.2 µM
